Reference: patent publication US20180264074A1, “USE OF POLYMYXIN AS AN ANTIDOTE FOR INTOXICATIONS BY AMATOXINS” (UNIVERSIDADE DO PORTO, priority 2015, published 2018)

Columns and labels:
adult male mice (CD-1) [1] = type: in vivo
Protocol: (§1) For this purpose, adult male mice (CD-1) were used. Two experiments were performed to test polymyxin B effectiveness: polymyxin B was administered concomitantly with α-amanitin and four hours after administration of α-amanitin. Concomitant therapy consisted of 0.33 mg/kg of α-amanitin followed by 2.5 mg/kg of polymyxin B (one administration). In the second experiment, three 2.5 mg/kg administrations of polymyxin B were used in different time-points [4, 8 and 12 h, intraperitoneal (i.p.) administration] after one α-amanitin (dose 0.33 mg/kg i.p.) exposure, as to mimic the clinical scenario of late intoxication diagnosis; human intoxication is often only found hours later when symptoms become clinically relevant. […] Moreover 50% of animal exposed to polymyxin B 4, 8 and 12 h after α-amanitin survived […]. In order to validate and unveil some mechanisms involved, an acute study with the same doses and scheme was performed, with animals being sacrificed 24 h after α-amanitin administration.
FIG. 1. Survival curves after concomitant i.p. administration of 0.33 mg/kg of α-amanitin and polymyxin B (Ama+Pol— 2.5 mg/kg) and 3 administrations of polymyxin B (Ama+Pol— 3×2.5 mg/kg) at different time-points (4, 8 and 12 h, i.p. administration) after one α-amanitin (dose 0.33 mg/kg i.p.). Results are expressed in percent survival. Control tests were performed (Control), consisting of a saline-control treatment. A polymyxin treatment (Pol) was additionally performed. A treatment with α-amanitin (Ama) as also made.
For this purpose, adult male mice (CD-1) were used. Two experiments were performed to test polymyxin B effectiveness: polymyxin B was administered concomitantly with α-amanitin and four hours after administration of α-amanitin. Concomitant therapy consisted of 0.33 mg/kg of α-amanitin followed by 2.5 mg/kg of polymyxin B (one administration). In the second experiment, three 2.5 mg/kg administrations of polymyxin B were used in different time-points (4, 8 and 12 h, i.p. administration) after one α-amanitin exposure (0.33 mg/kg i.p dose), as to mimic the clinical scenario of late intoxication diagnosis; human intoxication is often only found hours later when symptoms become clinically relevant. […] Moreover, 50% of animals exposed to polymyxin B 4, 8 and 12 h after α-amanitin survived (FIG. 1). In order to validate and unveil some mechanisms involved, an acute study with the same doses and scheme was performed with polymyxin B 4, 8 and 12 h after α-amanitin administration. Animals were sacrificed 24 h after α-amanitin administration. […] The renal corpuscles appearance is heterogeneous, with a wide capsular space, and thickened external Bowman capsule. […]

adult male mice (CD-1) [2] = test: Acute study, animals sacrificed 24 h after α-amanitin: plasma aminotransferases, liver and kidney histology; type: in vivo
Protocol: as §1
FIG. 2. Plasma levels of Aspartate aminotransferase (AST) and alanine aminotransferase (ALT) in control, polymyxin B (3×2.5 mg/kg) (Pol), α-amanitin (Ama) and α-amanitin+polymyxin B (3×2.5 mg/kg) (Ama+Pol) groups. Results are presented as means±standard deviation (SD), and were obtained from 4-5 animals from each treatment. Statistical comparisons were made using Kruskal-Wallis ANOVA on Ranks followed by the Dunn's post hoc test (*p<0.05, Ama vs. control; #p<0.05, Ama vs. Ama+Pol).
FIG. 3. Liver histopathology by light microscopy. (A) Light micrograph (40×) from α-amanitin treated-group. The presence of cellular oedema (1), cytoplasmic vacuolization (2), interstitial inflammatory cell infiltration (3), as well as some necrotic zones can be seen (4). (B) Light micrograph (40×) from α-amanitin+polymixin B (3×2.5 mg/kg) group. […] Increase number interstitial inflammatory cell was still observed.
FIG. 4. Kidney histopathology by light microscopy (A) Light micrograph (10×) from α-amanitin-treated group. The presence of cytoplasmatic vacuolization (5), renal corpuscles with a wide capsular space, and thickened external Bowman capsule (6), as well as some necrotic zones can be seen (7). The presence large amounts of fibrin-related material cause enlargement and obstruction of distal tubules (8). (B) Light micrograph (10×) from α-amanitin+polymixin B (3×2.5 mg/kg) group.
For this purpose, adult male mice (CD-1) were used. Two experiments were performed to test polymyxin B effectiveness: polymyxin B was administered concomitantly with α-amanitin and four hours after administration of α-amanitin. Concomitant therapy consisted of 0.33 mg/kg of α-amanitin followed by 2.5 mg/kg of polymyxin B (one administration). In the second experiment, three 2.5 mg/kg administrations of polymyxin B were used in different time-points (4, 8 and 12 h, i.p. administration) after one α-amanitin exposure (0.33 mg/kg i.p dose), as to mimic the clinical scenario of late intoxication diagnosis; human intoxication is often only found hours later when symptoms become clinically relevant. […] Moreover, 50% of animals exposed to polymyxin B 4, 8 and 12 h after α-amanitin survived (FIG. 1). In order to validate and unveil some mechanisms involved, an acute study with the same doses and scheme was performed with polymyxin B 4, 8 and 12 h after α-amanitin administration. Animals were sacrificed 24 h after α-amanitin administration. […] The renal corpuscles appearance is heterogeneous, with a wide capsular space, and thickened external Bowman capsule. […] Marked atrophy and degeneration of distal tubules cells was also observed, and large amounts of fibrin-related material caused enlargement and obstruction of these tubules.

[3] = 24 h after α-amanitin 0.33 mg/kg i.p., polymyxin B 3×2.5 mg/kg at 4, 8 and 12 h
[4] = 24 h after α-amanitin 0.33 mg/kg i.p., polymyxin B 3×2.5 mg/kg at 4, 8 and 12 h, listed as polymixin B

| Compound | day until which all animals died (adult male mice (CD-1) [1]; single dose of α-amanitin 0.33 mg/kg i.p., no antidote) [days] | signs of injury or discomfort (adult male mice (CD-1) [1]; concomitant polymyxin B 2.5 mg/kg with α-amanitin 0.33 mg/kg, up to day 30) | animals that survived (adult male mice (CD-1) [1]; polymyxin B 3×2.5 mg/kg i.p. at 4, 8 and 12 h after α-amanitin 0.33 mg/kg i.p.) [%] | animals that survived until the 30th day (adult male mice (CD-1) [1]; α-amanitin 0.33 mg/kg i.p. followed by polymyxin B 2.5 mg/kg, one concomitant administration) [%] | kidney histology (light microscopy) (adult male mice (CD-1) [2]; [3]) | liver histology (light microscopy) (adult male mice (CD-1) [2]; [3]) | plasma aminotransferases (AST, ALT) (adult male mice (CD-1) [2]; [3]) | kidney histology (light microscopy) (adult male mice (CD-1) [2]; [4]) | liver histology (light microscopy) (adult male mice (CD-1) [2]; [4]) | hepatic and renal damage (histological and plasma data) (adult male mice (CD-1) [2]; 24 h after α-amanitin administration, same doses and scheme) |
| --- | --- | --- | --- | --- | --- | --- | --- | --- | --- | --- |
| CC[C@H](C)[C@@H]1NC(=O)CNC(=O)[C@@H]2Cc3c([nH]c4cc(O)ccc34)[S@+]([O-])C[C@H](NC(=O)CNC1=O)C(=O)N[C@@H](CC(N)=O)C(=O)N1C[C@H](O)C[C@H]1C(=O)N[C@@H]([C@@H](C)[C@@H](O)CO)C(=O)N2 [α-amanitin] | ≤ 5 | – | – | – | – | – | – | – | – | – |
| polymyxin B | – | without major signs of injury or discomfort | 50 | 100 | protected against the occurrence of the above referred alterations, particularly the necrosis and the obstruction of distal tubules | significant reversion against α-amanitin-induced necrotic changes as well as the induced oedema and cytoplasmic vacuolization | totally reverted | oedema, cytoplasmatic vacuolization and necrosis, were significantly attenuated | oedema, cytoplasmatic vacuolization and necrosis, were significantly attenuated | protected against hepatic and renal damage caused by α-amanitin |
